# Assay results: patent publication US6130228A, “Polycyclic compounds” (priority 1995, dated 2000)
# Target: T1, Acetylcholinesterase (AChE) (Rattus norvegicus, UniProt P37136)
# T1 construct: The brain was removed and homogenised; from tissue; host or cells: rat brain (male Sprague Dawley), Triton X100 detergent supernatant of the EDTA-buffer pellet
# Experiment: biochemical
# Type: biochemical, Male Rats (Sprague Dawley), brain
# Settings: not given
# Experimental: (i) Enzyme Source for AChE
# 5 Male Rats (Sprague Dawley) weighing approx 250 g were killed by CO2 overdose and cervical dislocation.
# The brain was removed and homogenised (9 strokes at 840 rpm with 4 volumes of phosphate buffer pH 7.4+10 mM (EDTA) and centrifuged at 27,000 g for 30 minutes.
# The supernatant was discarded and the pellet resuspended in phosphate buffer with 10 mM EDTA+1- Triton X100 (2 ml/g wet weight). The crude homogenate was centrifuged at 27,000 g for 30-40 minutes.
# The pellet was discarded and the supernatant was dispensed into 0.5 ml aliquots and stored at -20° C. until required.
# Phosphate Buffer (0.1M. pH 7.4)
# Made up to 500 ml with distilled H2 O, pH 7.4.
# 0.5 ml aliquots of brain (enzyme solution) as prepared above were thawed out. 2 ml of phosphate buffer was added to each aliquot. 2 ml of the enzyme solution was incubated with 2 ml PDS for 60 minutes at 0° C. The composition of blank, control and test solutions are given below:
# 0.9 ml phosphate buffer (0.1 M, pH 7.4)
# 0.85 ml phosphate buffer (0.1M, pH 7.4)
# 0.05 ml acetylthiocholine (5.2 mM)
# (§1) 0.8 ml phosphate buffer (0.1M, pH 7.4)
# 0.05 ml Acetylthiocholine 5.2 mM
# Change in absorbance was measured at 30 second intervals for 3 minutes at […]. The control was taken as 100%. Inhibitor was calculated as a percentage of the control. A graph of Log of inhibitor conc. versus % control was plotted and IC5. values calculated by interpolation.
# T1 sequence (P37136 32-614): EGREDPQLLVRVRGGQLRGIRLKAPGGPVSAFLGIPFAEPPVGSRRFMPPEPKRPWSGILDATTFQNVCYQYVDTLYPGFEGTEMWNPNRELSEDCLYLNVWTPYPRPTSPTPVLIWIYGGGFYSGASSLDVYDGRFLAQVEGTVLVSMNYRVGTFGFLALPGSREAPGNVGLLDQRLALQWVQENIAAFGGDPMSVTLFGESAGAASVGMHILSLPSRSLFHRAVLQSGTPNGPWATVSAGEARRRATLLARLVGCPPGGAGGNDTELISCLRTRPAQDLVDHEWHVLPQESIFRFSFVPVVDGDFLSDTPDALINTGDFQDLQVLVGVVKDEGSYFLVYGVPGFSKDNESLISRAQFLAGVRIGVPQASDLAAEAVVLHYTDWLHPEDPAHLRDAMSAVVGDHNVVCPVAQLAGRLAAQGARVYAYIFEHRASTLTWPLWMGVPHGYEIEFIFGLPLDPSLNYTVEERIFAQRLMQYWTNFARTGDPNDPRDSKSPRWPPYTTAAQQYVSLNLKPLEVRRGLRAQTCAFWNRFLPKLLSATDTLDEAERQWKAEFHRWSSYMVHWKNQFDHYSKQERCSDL
SMILES,AChE TACRINE RATIO,IC50 [µM]
"Nc1c2c(nc3ccc(F)cc13)-c1ccccc1CC2 [Compound 27, 7-Amino-9-fluoro-5,6-dihydrobenz[c] acridine]",0.004,–
"c1ccc(CNc2c3c(nc4ccccc24)CCC3)cc1 [Compound 28, N-(Phenylmethyl)-9-amino-2,3-dihydro-1H-cyclopenta[1,2-b] quinoline]",–,39.6
"Cc1cc(C)c2c(N)c3c(nc2c1)CCC3 [Compound 30, 9-Amino-6,8-dimethyl-2,3-Dihydro-1H -cyclopenta [1,2-b] quinoline]",0.600,–

# Same assay, conditions: Table 1; form BASE; ±SEM, n = 5; read-out: IC50 AChE
row,SMILES,IC50 [µM]
1,"COc1ccc2c(c1)CCCc1c-2nc2ccccc2c1N [Compound 1, 13-Amino-1,2 dihydro-5-methoxy[1H] benz [7] annuleno [5,4-b] quinoline]",68.8
2,"Nc1c2c(nc3ccccc13)-c1ccccc1CC2 [Compound 3, 7 Amino-5,6-dihydro-benz-[c]-acridine]",37.4
3,"COc1cccc2c1CCc1c-2nc2ccccc2c1N [Compound 4, 7-Amino-5,6-dihydro-4-methoxybenz-[c]-acridine]",47.5
4,"Nc1c2c(nc3ccccc13)-c1ccc(Cl)cc1CC2 [Compound 5, 7-Amino-5,6-dihydro-3-chlorobenz-[c]-acridine]",144
5,"Nc1c2c(nc3ccccc13)-c1ccccc1CCC2 [Compound 6, 8-Amino-6,7-dihydro-5H-benzo-[6, 7] cyclohepta [1,2-b] quinoline]",329

# Same assay, conditions: Table 1; form SALT; ±SEM, n = 5; read-out: IC50 AChE
row,SMILES,IC50 [µM]
1,"COc1ccc2c(c1)CCCc1c-2nc2ccccc2c1N [Compound 1, 13-Amino-1,2 dihydro-5-methoxy[1H] benz [7] annuleno [5,4-b] quinoline]",17.4
2,"Nc1c2c(nc3ccccc13)-c1ccccc1C2 [Compound 2, 6-Amino-4,5-benzo-[5H]-cyclopenta-[1,2-b]-quinoline]",0.35
3,"Nc1c2c(nc3ccccc13)-c1ccccc1CC2 [Compound 3, 7 Amino-5,6-dihydro-benz-[c]-acridine]",7.8
4,"COc1cccc2c1CCc1c-2nc2ccccc2c1N [Compound 4, 7-Amino-5,6-dihydro-4-methoxybenz-[c]-acridine]",17.1
5,"Nc1c2c(nc3ccccc13)-c1ccc(Cl)cc1CC2 [Compound 5, 7-Amino-5,6-dihydro-3-chlorobenz-[c]-acridine]",17.9
6,"Nc1c2c(nc3ccccc13)-c1ccccc1CCC2 [Compound 6, 8-Amino-6,7-dihydro-5H-benzo-[6, 7] cyclohepta [1,2-b] quinoline]",17.5

# Same assay, conditions: Table 2; read-out: AChE IC50
row,SMILES,IC50 [µM]
1,"Nc1c2c(nc3ccc(F)cc13)-c1ccccc1CC2 [Compound 27, 7-Amino-9-fluoro-5,6-dihydrobenz[c] acridine]",18
2,"Cc1cc(C)c2c(N)c3c(nc2c1)CCC3 [Compound 30, 9-Amino-6,8-dimethyl-2,3-Dihydro-1H -cyclopenta [1,2-b] quinoline]",0.13

# Same assay, conditions: Table 2; relative to tacrine = 1.000
row,SMILES,AChE TACRINE RATIO
1,"c1ccc(CNc2c3c(nc4ccccc24)CCC3)cc1 [Compound 28, N-(Phenylmethyl)-9-amino-2,3-dihydro-1H-cyclopenta[1,2-b] quinoline]",0.002

# Tested on: noradrenaline (NA) uptake
# Experiment: Monoamine Uptake Inhibition Assay, noradrenaline (synaptosomal preparation)
# Type: biochemical, rat (Sprague Dawley)
# Settings: Table 1; form BASE; n = 5; read-out: IC50 NA UPTAKE
# Experimental: (§2) One male rat (Sprague Dawley) weighing approx. 200-250 g was sacrificed by cervical dislocation. The brain was dissected out and the cerebellum discarded. The brain was then weighed and 10 ml ice cold sucrose (0.32M) added per gram tissue. […] The pellet was discarded and the supernatant retained (crude synaptosomal preparation).
# (§3) All tubes were set up in triplicate. […] 100 μl of the prepared synaptosomal preparation was added to each tube and incubated for 5 minutes in a shaking water bath at 37° C. Any reaction was stopped by plunging the tubes into an ice water bath. ^3 H NA (10^-7 M) or ^3 H 5-HT ([…]) was added to each tube and incubated for 5 minutes in a shaking water bath at 37° C. Any reaction was stopped by plunging the tubes into an ice-water bath. Accumulated monoamines were collected using a Brandell Cell Harvester under mild vacuum. Filters were rinsed (2×) using 4 ml of ice-cold 0.9% saline. Scintillation fluid was added (4 ml/tube). Radioactivity was measured on a scintillation counter.
# (§4) Non-specific values were subtracted from total values. The control was taken as 100%. Drug effects were calculated as a percentage of control inhibitor value. A graph of log of drug concentration versus % control was plotted and IC50 values were calculated by interpolation.
row,SMILES,IC50 [µM]
1,"COc1ccc2c(c1)CCCc1c-2nc2ccccc2c1N [Compound 1, 13-Amino-1,2 dihydro-5-methoxy[1H] benz [7] annuleno [5,4-b] quinoline]",3.6
2,"Nc1c2c(nc3ccccc13)-c1ccccc1CC2 [Compound 3, 7 Amino-5,6-dihydro-benz-[c]-acridine]",12.1
3,"COc1cccc2c1CCc1c-2nc2ccccc2c1N [Compound 4, 7-Amino-5,6-dihydro-4-methoxybenz-[c]-acridine]",1.4
4,"Nc1c2c(nc3ccccc13)-c1ccc(Cl)cc1CC2 [Compound 5, 7-Amino-5,6-dihydro-3-chlorobenz-[c]-acridine]",4.1

# Same assay, conditions: Table 1; form SALT; n = 5; read-out: IC50 NA UPTAKE
row,SMILES,IC50 [µM]
1,"COc1ccc2c(c1)CCCc1c-2nc2ccccc2c1N [Compound 1, 13-Amino-1,2 dihydro-5-methoxy[1H] benz [7] annuleno [5,4-b] quinoline]",1.8
2,"Nc1c2c(nc3ccccc13)-c1ccccc1C2 [Compound 2, 6-Amino-4,5-benzo-[5H]-cyclopenta-[1,2-b]-quinoline]",2.3
3,"Nc1c2c(nc3ccccc13)-c1ccccc1CC2 [Compound 3, 7 Amino-5,6-dihydro-benz-[c]-acridine]",13.2
4,"COc1cccc2c1CCc1c-2nc2ccccc2c1N [Compound 4, 7-Amino-5,6-dihydro-4-methoxybenz-[c]-acridine]",12.2
5,"Nc1c2c(nc3ccccc13)-c1ccc(Cl)cc1CC2 [Compound 5, 7-Amino-5,6-dihydro-3-chlorobenz-[c]-acridine]",6.1
6,"Nc1c2c(nc3ccccc13)-c1ccccc1CCC2 [Compound 6, 8-Amino-6,7-dihydro-5H-benzo-[6, 7] cyclohepta [1,2-b] quinoline]",1.9

# Tested on: 5-HT (serotonin) uptake
# Experiment: not given
# Type: biochemical, rat (Sprague Dawley)
# Settings: not given
# Experimental: as §2, §3, §4
row,SMILES,5-HT UPTAKE INHIBITION TACRINE RATIO
1,"Nc1c2c(nc3ccc(F)cc13)-c1ccccc1CC2 [Compound 27, 7-Amino-9-fluoro-5,6-dihydrobenz[c] acridine]",2.171
2,"c1ccc(CNc2c3c(nc4ccccc24)CCC3)cc1 [Compound 28, N-(Phenylmethyl)-9-amino-2,3-dihydro-1H-cyclopenta[1,2-b] quinoline]",1.310
3,"Cc1cc(C)c2c(N)c3c(nc2c1)CCC3 [Compound 30, 9-Amino-6,8-dimethyl-2,3-Dihydro-1H -cyclopenta [1,2-b] quinoline]",0.938

# Same assay, conditions: Table 1; form BASE; n = 5; read-out: IC50 5HT UPTAKE
row,SMILES,IC50 [µM]
1,"COc1ccc2c(c1)CCCc1c-2nc2ccccc2c1N [Compound 1, 13-Amino-1,2 dihydro-5-methoxy[1H] benz [7] annuleno [5,4-b] quinoline]",0.7
2,"Nc1c2c(nc3ccccc13)-c1ccccc1CC2 [Compound 3, 7 Amino-5,6-dihydro-benz-[c]-acridine]",4.6
3,"COc1cccc2c1CCc1c-2nc2ccccc2c1N [Compound 4, 7-Amino-5,6-dihydro-4-methoxybenz-[c]-acridine]",5.8
4,"Nc1c2c(nc3ccccc13)-c1ccc(Cl)cc1CC2 [Compound 5, 7-Amino-5,6-dihydro-3-chlorobenz-[c]-acridine]",14.3
5,"Nc1c2c(nc3ccccc13)-c1ccccc1CCC2 [Compound 6, 8-Amino-6,7-dihydro-5H-benzo-[6, 7] cyclohepta [1,2-b] quinoline]",4.7

# Same assay, conditions: Table 1; form SALT; n = 5; read-out: IC50 5HT UPTAKE
row,SMILES,IC50 [µM]
1,"COc1ccc2c(c1)CCCc1c-2nc2ccccc2c1N [Compound 1, 13-Amino-1,2 dihydro-5-methoxy[1H] benz [7] annuleno [5,4-b] quinoline]",0.02
2,"Nc1c2c(nc3ccccc13)-c1ccccc1C2 [Compound 2, 6-Amino-4,5-benzo-[5H]-cyclopenta-[1,2-b]-quinoline]",2.2
3,"Nc1c2c(nc3ccccc13)-c1ccccc1CC2 [Compound 3, 7 Amino-5,6-dihydro-benz-[c]-acridine]",2
4,"COc1cccc2c1CCc1c-2nc2ccccc2c1N [Compound 4, 7-Amino-5,6-dihydro-4-methoxybenz-[c]-acridine]",2.1
5,"Nc1c2c(nc3ccccc13)-c1ccc(Cl)cc1CC2 [Compound 5, 7-Amino-5,6-dihydro-3-chlorobenz-[c]-acridine]",5.2
6,"Nc1c2c(nc3ccccc13)-c1ccccc1CCC2 [Compound 6, 8-Amino-6,7-dihydro-5H-benzo-[6, 7] cyclohepta [1,2-b] quinoline]",1

# Same assay, conditions: Table 3; read-out: 5-HT UPTAKE INHIBITION
row,SMILES,IC50 [µM]
1,"Nc1c2c(nc3ccc(F)cc13)-c1ccccc1CC2 [Compound 27, 7-Amino-9-fluoro-5,6-dihydrobenz[c] acridine]",3.5
2,"c1ccc(CNc2c3c(nc4ccccc24)CCC3)cc1 [Compound 28, N-(Phenylmethyl)-9-amino-2,3-dihydro-1H-cyclopenta[1,2-b] quinoline]",5.8
3,"Cc1cc(C)c2c(N)c3c(nc2c1)CCC3 [Compound 30, 9-Amino-6,8-dimethyl-2,3-Dihydro-1H -cyclopenta [1,2-b] quinoline]",8.1

# Target: T2, Butyrylcholinesterase (BChE) (Equus caballus, UniProt P81908)
# T2 construct: purchased Sigma c-7512
# Experiment: biochemical
# Settings: not given
# Experimental: The following components were utilised:
# Phosphate Buffer (0.1M, pH 7.4)
# Made up to 500 ml with distilled H2 O, pH 7.4
# 1 ml of enzyme solution (i), was incubated with 2 ml PDS for 60 minutes at 0° C.
# Components of the assay blank, controls and test solutions are provided below:
# 0.9 ml phosphate buffer (0.1M, pH 7.4)
# 0.85 ml phosphate buffer (0.1 M, pH 7.4)
# 0.05 ml Acetylthiocholine (5.2 mM)
# as §1
# Control was taken as 100%. Inhibitor was calculated as a percentage of control. A graph of Log of inhibitor conc. versus % control was plotted and IC50 values calculated by interpolation.
# T2 sequence (P81908 whole entry): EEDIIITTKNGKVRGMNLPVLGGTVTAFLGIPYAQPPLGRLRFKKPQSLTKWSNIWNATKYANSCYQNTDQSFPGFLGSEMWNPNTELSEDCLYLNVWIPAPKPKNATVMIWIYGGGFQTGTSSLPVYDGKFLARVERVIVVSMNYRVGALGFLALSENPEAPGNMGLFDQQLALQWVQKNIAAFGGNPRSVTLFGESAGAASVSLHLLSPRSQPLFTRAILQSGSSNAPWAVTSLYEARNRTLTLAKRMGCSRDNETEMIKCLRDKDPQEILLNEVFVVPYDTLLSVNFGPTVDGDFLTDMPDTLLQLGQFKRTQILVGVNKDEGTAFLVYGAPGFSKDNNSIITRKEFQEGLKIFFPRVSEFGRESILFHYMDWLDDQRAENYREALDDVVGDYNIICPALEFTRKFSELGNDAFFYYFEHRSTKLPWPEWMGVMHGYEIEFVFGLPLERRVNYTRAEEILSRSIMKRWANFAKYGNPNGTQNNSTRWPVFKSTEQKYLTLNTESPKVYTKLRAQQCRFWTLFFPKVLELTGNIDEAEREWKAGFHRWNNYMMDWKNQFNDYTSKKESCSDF
row,SMILES,BChE TACRINE RATIO
1,"c1ccc(CNc2c3c(nc4ccccc24)CCC3)cc1 [Compound 28, N-(Phenylmethyl)-9-amino-2,3-dihydro-1H-cyclopenta[1,2-b] quinoline]",0.002
2,"Cc1cc(C)c2c(N)c3c(nc2c1)CCC3 [Compound 30, 9-Amino-6,8-dimethyl-2,3-Dihydro-1H -cyclopenta [1,2-b] quinoline]",0.035

# Same assay, conditions: Table 1; form BASE; ±SEM, n = 5; read-out: IC50 BChE
row,SMILES,IC50 [µM]
1,"COc1cccc2c1CCc1c-2nc2ccccc2c1N [Compound 4, 7-Amino-5,6-dihydro-4-methoxybenz-[c]-acridine]",10.3

# Same assay, conditions: Table 1; form SALT; ±SEM, n = 5; read-out: IC50 BChE
row,SMILES,IC50 [µM]
1,"COc1ccc2c(c1)CCCc1c-2nc2ccccc2c1N [Compound 1, 13-Amino-1,2 dihydro-5-methoxy[1H] benz [7] annuleno [5,4-b] quinoline]",34.4
2,"Nc1c2c(nc3ccccc13)-c1ccccc1CC2 [Compound 3, 7 Amino-5,6-dihydro-benz-[c]-acridine]",3.8
3,"COc1cccc2c1CCc1c-2nc2ccccc2c1N [Compound 4, 7-Amino-5,6-dihydro-4-methoxybenz-[c]-acridine]",1.9
4,"Nc1c2c(nc3ccccc13)-c1ccc(Cl)cc1CC2 [Compound 5, 7-Amino-5,6-dihydro-3-chlorobenz-[c]-acridine]",7.1
5,"Nc1c2c(nc3ccccc13)-c1ccccc1CCC2 [Compound 6, 8-Amino-6,7-dihydro-5H-benzo-[6, 7] cyclohepta [1,2-b] quinoline]",4

# Same assay, conditions: Table 2; NB = No Block at 100 μM; read-out: BChE IC50 (no block)
row,SMILES,IC50 [µM]
1,"Nc1c2c(nc3ccc(F)cc13)-c1ccccc1CC2 [Compound 27, 7-Amino-9-fluoro-5,6-dihydrobenz[c] acridine]",> 100

# Same assay, conditions: Table 2; read-out: BChE IC50
row,SMILES,IC50 [µM]
1,"c1ccc(CNc2c3c(nc4ccccc24)CCC3)cc1 [Compound 28, N-(Phenylmethyl)-9-amino-2,3-dihydro-1H-cyclopenta[1,2-b] quinoline]",13.8
2,"Cc1cc(C)c2c(N)c3c(nc2c1)CCC3 [Compound 30, 9-Amino-6,8-dimethyl-2,3-Dihydro-1H -cyclopenta [1,2-b] quinoline]",0.71
